Measured values taken from US9700638B2, “Near infrared label and methods of use thereof” (priority 2013, dated 2017).
Read-outs that look alike come from different tables or passages of the source.

Columns and labels:
[1] = reference chromophores with known molar absorptivity; cited from earlier work
[2] = Light absorption / molar absorptivity of DDAO and 7-aminoDDAO derivatives; assay type: physicochemical; details: for light absorption maximum: FIG. 4, 50% MeOH
Procedure: (§1) The molar extinction of 7-aminoDDAO (55 000 M-1 cm-1) was determined by the attachment of reference chromophores with known molar absorptivity (Table 1). Light absorption spectra of the labeled caspofungin and posaconazole derivatives were close to superposition of those for the 7-(4-aminobutyl)amino-DDAO and the corresponding drugs, which is illustrated in FIG. 4 on the example of posaconazole derivative. […] Thus, excitation and emission maxima for DDAO were 653 nm and 660 nm correspondingly, while for 7-(4-aminobutyl)amino-DDAO they shifted to 671 nm and 679 nm correspondingly. […] Remarkably, the shape of the excitation spectrum curve for ionized form of DDAO was the same in 50% and 100% methanol.

[3] = Fluorescence spectra, relative brightness and quantum yield in various solvents; assay type: physicochemical; set-up: brightness: unit not given here; details: for QY (50% MeOH), quantum yield / RB (50% MeOH), relative brightness / QY (MeOH), quantum yield / RB (MeOH), relative brightness / QY (H20), quantum yield / RB (H2O), relative brightness: 1 μM; for increase of light emission in 50% methanol compared to water: 50% methanol vs water; for QY (H20), quantum yield / RB (H2O), relative brightness: H2O; for increase of emission in 100% methanol compared to 50% methanol: 100% methanol vs 50% methanol
Procedure: as §1
However, posaconazole derivative behaved differently. […] The suppression of the fluorophore light emission in posaconazole derivative is likely due to the presence of extended light-absorbing moiety that can stack to the fluorophore, causing contact quenching (FIG. 7). […] in fluorescence is expected upon interaction of the labeled drug with its cellular target, whereby stacking interactions of the fluorophore with the drug moiety have to be destroyed (FIG. 7B). This beneficial “signaling” effect is expected to greatly increase the contrast of imaging by minimizing the background signal of non-bound compound, which remains “dark”.
Table 2 illustrates light emission properties of DDAO-based diagnostic probes and reference compounds, and presents the data on quantum yield and brightness for 7-aminoDDAO compound at various conditions. These parameters were determined using a reference fluorophore Cy5.5, (which has the excitation and emission maxima nearly identical to those for 7-aminoDDAO) and published data for original DDAO fluorophore. […] This was perhaps due to higher light absorptivity and higher quantum yield of the amino-derivative. The difference in brightness further increased in 50% methanol (21 000 and 9000 correspondingly).

[4] = Chemical and photochemical stability of the fluorophore; assay type: physicochemical
Candida albicans = experiment: Imaging of fungal infection in mice kidneys by whole-body fluorescence imaging; assay type: in vivo
Procedure: Mice were infected via intravenous inoculation with 5*10^5 CFU of wild type Candida albicans and an infection that occurs most prominently in the kidneys. After 48 hours post infection, a fixed concentration of 0.12 ug/mL of CSF-DDAO is added via tail vein injection at 0, 2, 4 and 8 hours to assess the optimal time for visualization of the infection. At each time point, the mice were imaged in a non-invasive whole-body animal imaging system to detect fluorescence energy. Animals infected with Candida albicans show proliferation of the fungal infection in the kidneys after 48 hours. […] Maximum labeling occurred at 8 hours. […] At the same time no signal was detected in uninfected and/or untreated organs.

[5] = listed as 7-(4-aminobutyl)amino-DDAO

Molecule | Molar absorption for attached compounds [1] | molar absorbance [2] | ε [2] | light absorption maximum [2] [nm] | brightness [3] | pH dependence of the fluorophore [3] | QY (50% MeOH), quantum yield [3] | RB (50% MeOH), relative brightness [3] | increase of light emission in 50% methanol compared to water [3] | QY (MeOH), quantum yield ([3]; 100% MeOH) | RB (MeOH), relative brightness ([3]; 100% MeOH) | QY (H20), quantum yield [3] | RB (H2O), relative brightness [3] | increase of emission in 100% methanol compared to 50% methanol [3] [fold] | other results
Cc1cc(C)n2c1C=C1C=CC(CCC(=O)O)=[N+]1[B-]2(F)F [BODIPY-FL] | 82,000 M^−1cm^−1 |  |  |  |  |  |  |  |  |  |  |  |  |  | 
CC1(C)C2=C(Cl)C(=O)C(Cl)=CC2=Nc2ccc(NCCCCN)cc21 [DDAO NH2, DDAO—NH—(CH2)4—NH2] |  | 53,000 | 53,000 M^−1cm^−1 | 673 | 6,000 | pH-independent | 0.40 | 21,000 | ca. 2.5 fold | 0.25 | 13,000 | 0.19 | 10,000 |  | Calculated molar absorption for DDAO residue ([2]; attached compound BODIPY-FL): 70,000 M^−1cm^−1; Calculated molar absorption for DDAO residue ([2]; attached compound DNP): 32,000 M^−1cm^−1; Calculated molar absorption for DDAO residue ([2]; attached compound Posaconazole): 59,000 M^−1cm^−1; Calculated molar absorption for DDAO residue, Average ([2]; average over three attached chromophores): 53,000 M^−1cm^−1; molar extinction ([2]; determined by attachment of reference chromophores): 55 000 M-1 cm-1; long-wavelength emission range [3]: 640-700 nm; RB (50% MeOH), relative brightness ([3]; listed as 7-aminoDDAO): 21 000; emission maximum in 100% MeOH ([3]; 100% MeOH): 670 nm; excitation maximum in 100% MeOH ([3]; 100% MeOH): 620 nm; drop of light emission intensity in 100% MeOH ([3]; 100% MeOH vs 50% methanol): 1.7 fold; RB (MeOH), relative brightness ([3]; 100% MeOH, listed as 7-aminoDDAO): 13 000; RB (H2O), relative brightness ([3]; listed as 7-aminoDDAO): 10 000; emission maximum [3, 5]: 679 nm; excitation maximum [3, 5]: 671 nm; emission maximum ([3]; listed as 7-aminoDDAO): 680 nm; emission maximum ([3]; listed as 7-aminoDDAP): 680 nm; excitation maximum ([3]; listed as 7-aminoDDAP): 670 nm; chemical and photochemical stability [4]: chemically and photochemically stable
CC1(C)C2=C(Cl)C(=O)C(Cl)=CC2=Nc2ccc(O)cc21 [DDAO, 7-hydroxy-9H-(1,3-dichloro-9,9-dimethylacridin-2-one), reference compound] |  | 48,000 | 48,000 M^−1cm^−1 | 653 | 3,600 | pH-dependent | 0.19 | 9000 |  | 0.25 | 12 000 | 0.125 | 6 000 | 1.3 | emission maximum [3]: 660 nm; excitation maximum [3]: 653 nm; RB (50% MeOH), relative brightness ([3]; listed as DDAO (pH 9.0)): 9,000; RB (MeOH), relative brightness ([3]; 100% MeOH, listed as DDAO (pH 9.0)): 12,000; RB (H2O), relative brightness ([3]; listed as DDAO (pH 9.0)): 6,000
CC[C@@H]([C@H](C)O)n1ncn(-c2ccc(N3CCN(c4ccc(OC[C@@H]5CO[C@@](Cn6cncn6)(c6ccc(F)cc6F)C5)cc4)CC3)cc2)c1=O [Posaconazole] | 34,000 M^−1cm^−1 |  |  |  |  |  |  |  |  |  |  |  |  |  | 
DDAO—NH—(CH2)4—NCS-Caspofungin [DDAO Casp] |  |  | 53,000 M^−1cm^−1 |  |  |  | 0.26 | 13,800 | 2 fold | 0.42 | 22,000 | 0.11 | 6,000 | 1.3 | fluorescent signal of the infected organ (kidney) (Candida albicans; C. albicans infected mice kidney, FIG. 8): bright fluorescent signal; labeling of cells in the target organs over time (Candida albicans; infected mice, whole body imaging at 0, 2, 4 and 8 hours): progressive labeling of cells in the target organs over time; time of maximum labeling after probe injection (Candida albicans; mice 48 h post i.v. infection with C. albicans, 0.12 ug/mL via tail vein, whole body imaging): 8 h; accumulation in the kidneys in the absence of infection (Candida albicans; uninfected mice): did not accumulate in the kidneys
